For the test, the system named is L1210 leukemia ip in BDF1 mice, survival T/C. The test is described as follows: NCI In Vivo Anticancer Drug Screen. Data for tumor model L1210 Leukemia (intraperitoneal) in B6D2F1 (BDF1) mice. The note with it: endpoint: mean survival time, higher = longer survival. The method, boiled down: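 Each compound was tested against a transplantable tumor grown in mice. The endpoint was survival, with treated animals benchmarked against vehicle controls as a simple ratio.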

The mark [1] stands for this setting: dose: 25.0 mg/kg/injection, schedule: Q01DX009 (ip), vehicle: saline.
Setting [2] is: dose: 50.0 mg/kg/injection, schedule: Q01DX009 (ip), vehicle: saline.
[3] abbreviates: dose: 100.0 mg/kg/injection, schedule: Q01DX001 (ip), vehicle: saline with Tween-80.
Setting [4] is: dose: 100.0 mg/kg/injection, schedule: Q04DX003 (ip), vehicle: Klucel (hydroxypropylcellulose) (HPC).
Where [5] appears, read: dose: 100.0 mg/kg/injection, schedule: Q04DX003 (ip), vehicle: saline with Tween-80.
[6] abbreviates: dose: 100.0 mg/kg/injection, schedule: Q04DX003 (ip), vehicle: saline.
The mark [7] stands for this setting: dose: 200.0 mg/kg/injection, schedule: Q04DX003 (ip), vehicle: saline.
Where [8] appears, read: dose: 400.0 mg/kg/injection, schedule: Q04DX003 (ip), vehicle: saline.
Setting [9] is: dose: 100.0 mg/kg/injection, schedule: Q01DX009 (ip), vehicle: saline with Tween-80.
Setting [10] is: dose: 200.0 mg/kg/injection, schedule: Q01DX009 (ip), vehicle: saline with Tween-80.
The mark [11] stands for this setting: dose: 200.0 mg/kg/injection, schedule: Q04DX003 (ip), vehicle: saline with Tween-80.
Where [12] appears, read: dose: 400.0 mg/kg/injection, schedule: Q04DX003 (ip), vehicle: saline with Tween-80.

Values joined by “and” are separate entries in the source; they are usually repeats but may differ in a detail not shown here. Equal entries are not always repeated. Toxic doses and inconclusive results are not listed.

For the compound `FC(F)(F)c1nc2nc(Cl)c(Cl)nc2[nH]1`, the T/C by setting is: (dose: 6.25 mg/kg/injection, schedule: Q01DX009 (ip), vehicle: saline) 99 % of control; (dose: 12.5 mg/kg/injection, schedule: Q01DX009 (ip), vehicle: saline) 94 % of control; (dose: 25.0 mg/kg/injection, schedule: Q01DX001 (ip), vehicle: saline with Tween-80) 106 % of control; (dose: 25.0 mg/kg/injection, schedule: Q01DX009 (ip), vehicle: other) 95 % of control; under setting [1], 103 % of control; (dose: 33.0 mg/kg/injection, schedule: Q01DX009 (ip), vehicle: other) 113 % of control. Also, the T/C runs as follows: (dose: 44.0 mg/kg/injection, schedule: Q04DX003 (ip), vehicle: other) 121 % of control; (dose: 44.0 mg/kg/injection, schedule: Q04DX003 (ip), vehicle: saline sonified) 94 % of control; (dose: 44.0 mg/kg/injection, schedule: Q04DX003 (ip), vehicle: saline with Tween-80) 102 % of control and 103 % of control; (dose: 50.0 mg/kg/injection, schedule: Q01DX001 (ip), vehicle: saline with Tween-80) 96 % of control; under setting [2], 116 % of control; (dose: 66.0 mg/kg/injection, schedule: Q04DX003 (ip), vehicle: saline sonified) 122 % of control. For the same compound, the T/C (dose: 66.0 mg/kg/injection, schedule: Q04DX003 (ip), vehicle: saline with Tween-80) was 109 % of control; the T/C under setting [3] is 110 % of control; the T/C under setting [4] was 154 % of control; the T/C (dose: 100.0 mg/kg/injection, schedule: Q04DX003 (ip), vehicle: other) was 176 % of control; the T/C (dose: 100.0 mg/kg/injection, schedule: Q04DX003 (ip), vehicle: saline sonified) is 159 % of control; the T/C under setting [5] is 153 % of control and 156 % of control. The T/C (dose: 150.0 mg/kg/injection, schedule: Q04DX003 (ip), vehicle: saline with Tween-80) was 102 % of control.

For the compound `C=C(C)Cn1cnc2c1c(=O)n(C)c(=O)n2C`, the T/C is, setting by setting: under setting [6], 103 % of control; under setting [7], 98 % of control; under setting [8], 89 % of control.

For `C[CH2][Pb]([CH2]C)([CH2]C)[O]C(=O)c1ccc(N)cc1`, the T/C reads like this: (dose: 0.75 mg/kg/injection, schedule: Q01DX009 (ip), vehicle: Klucel (hydroxypropylcellulose) (HPC)) 91 % of control; (dose: 1.5 mg/kg/injection, schedule: Q01DX009 (ip), vehicle: Klucel (hydroxypropylcellulose) (HPC)) 100 % of control; (dose: 3.0 mg/kg/injection, schedule: Q01DX009 (ip), vehicle: Klucel (hydroxypropylcellulose) (HPC)) 100 % of control; (dose: 6.0 mg/kg/injection, schedule: Q01DX009 (ip), vehicle: Klucel (hydroxypropylcellulose) (HPC)) 102 % of control; (dose: 12.0 mg/kg/injection, schedule: Q01DX009 (ip), vehicle: Klucel (hydroxypropylcellulose) (HPC)) 103 % of control; (dose: 12.5 mg/kg/injection, schedule: Q04DX002 (ip), vehicle: Klucel (hydroxypropylcellulose) (HPC)) 110 % of control. Further, the T/C (dose: 25.0 mg/kg/injection, schedule: Q04DX002 (ip), vehicle: Klucel (hydroxypropylcellulose) (HPC)) was 103 % of control.

For the compound `O=c1sc2c(s1)CCCC2`, the T/C reads like this: (dose: 100.0 mg/kg/injection, schedule: Q04DX002 (ip), vehicle: Klucel (hydroxypropylcellulose) (HPC)) 108 % of control; (dose: 200.0 mg/kg/injection, schedule: Q04DX002 (ip), vehicle: Klucel (hydroxypropylcellulose) (HPC)) 101 % of control; (dose: 400.0 mg/kg/injection, schedule: Q04DX002 (ip), vehicle: Klucel (hydroxypropylcellulose) (HPC)) 92 % of control.

Regarding `CC(=O)NC1C(OCc2ccccc2)OC2COC(C)(C)OC2C1O` (configuration not stated), the T/C by setting is: under setting [3], 107 % of control; (dose: 200.0 mg/kg/injection, schedule: Q01DX001 (ip), vehicle: saline with Tween-80) 93 % of control; (dose: 400.0 mg/kg/injection, schedule: Q01DX001 (ip), vehicle: saline with Tween-80) 110 % of control.

Take `CN(C)C1CC[N-]CC1.CN(C)C1CC[N-]CC1.[Cl][Pt+2][Cl]`: the T/C reads like this: under setting [1], 110 % of control; under setting [2], 110 % of control; under setting [6], 92 % of control.

For the compound `Cc1nc(-c2ccc(N=Cc3ccc(N(CCCOS(C)(=O)=O)CCCOS(C)(=O)=O)cc3C)cc2)c(C)s1`, the T/C by setting is: under setting [9], 100 % of control; under setting [10], 93 % of control.

Regarding `O=C(Nc1ccccc1)c1cc(N2CCOCC2)ccn1`, the T/C (dose: 100.0 mg/kg/injection, schedule: Q01DX001 (ip), vehicle: saline) is 97 % of control; the T/C (dose: 200.0 mg/kg/injection, schedule: Q01DX001 (ip), vehicle: saline) is 95 % of control; the T/C (dose: 400.0 mg/kg/injection, schedule: Q01DX001 (ip), vehicle: saline) is 91 % of control.

With `O=C(Nc1ccsn1)c1ccc(Cl)cc1Cl`, the T/C (dose: 50.0 mg/kg/injection, schedule: Q01DX009 (ip), vehicle: saline with Tween-80) was 111 % of control; the T/C under setting [9] was 91 % of control; the T/C under setting [10] was 91 % of control.

Take `CCCCCCOC(=O)Nc1cccc(O)c1`: the T/C reads like this: under setting [5], 104 % of control; under setting [11], 101 % of control; under setting [12], 91 % of control.

As for `CCC(=O)c1ccc(OCC(O)CN2CCN(c3ccccc3OC)CC2)cc1` (configuration not stated), the T/C by setting is: under setting [5], 96 % of control; under setting [11], 96 % of control; under setting [12], 103 % of control.

As for `O=C(/C=C(\Cl)C(=O)NO)NO`, the T/C (dose: 100.0 mg/kg/injection, schedule: Q01DX009 (ip), vehicle: acetone) was 102 % of control.

`O=C(/C=C/c1ccccc1)c1ccccn1`: the T/C was 100 % of control under setting [5], 104 % of control under setting [11] and 100 % of control under setting [12].

As for `O=P(NC12CC3CC(CC(C3)C1)C2)(N1CC1)N1CC1`, the T/C was 107 % of control (dose: 4.0 mg/kg/injection, schedule: Q04DX003 (ip), vehicle: Klucel (hydroxypropylcellulose) (HPC)); 150 % of control (dose: 9.0 mg/kg/injection, schedule: Q04DX003 (ip), vehicle: Klucel (hydroxypropylcellulose) (HPC)); 152 % of control and 182 % of control (dose: 13.3 mg/kg/injection, schedule: Q04DX003 (ip), vehicle: Klucel (hydroxypropylcellulose) (HPC)); 155 % of control and 176 % of control and 225 % of control (dose: 20.0 mg/kg/injection, schedule: Q04DX003 (ip), vehicle: Klucel (hydroxypropylcellulose) (HPC)); 169 % of control (dose: 27.0 mg/kg/injection, schedule: Q01DX001 (ip), vehicle: Klucel (hydroxypropylcellulose) (HPC)); 92 % of control (dose: 30.0 mg/kg/injection, schedule: Q04DX003 (ip), vehicle: Klucel (hydroxypropylcellulose) (HPC)).

`COc1ccc(NC(=O)c2ccc(C(=O)Nc3ccc(OC)cc3)cc2)cc1`: the T/C is, setting by setting: under setting [6], 92 % of control; under setting [7], 97 % of control; under setting [8], 92 % of control.

On to `CCOC12c3ccccc3N(S(C)(=O)=O)C(C)C1C2(Br)Br` (configuration not stated), for which the T/C was 94 % of control (dose: 100.0 mg/kg/injection, schedule: Q01DX009 (ip), vehicle: Klucel (hydroxypropylcellulose) (HPC)); 110 % of control under setting [4]; 94 % of control (dose: 200.0 mg/kg/injection, schedule: Q01DX009 (ip), vehicle: Klucel (hydroxypropylcellulose) (HPC)); 102 % of control (dose: 200.0 mg/kg/injection, schedule: Q04DX003 (ip), vehicle: Klucel (hydroxypropylcellulose) (HPC)); 90 % of control (dose: 400.0 mg/kg/injection, schedule: Q01DX009 (ip), vehicle: Klucel (hydroxypropylcellulose) (HPC)); 109 % of control (dose: 400.0 mg/kg/injection, schedule: Q04DX003 (ip), vehicle: Klucel (hydroxypropylcellulose) (HPC)).

Consider `CCOC(=O)C(C)(C)CN(CC(C)(C)C(=O)OCC)C(C)(C)CO`, for which the T/C is 95 % of control (dose: 100.0 mg/kg/injection, schedule: Q01DX001 (ip), vehicle: other); 98 % of control (dose: 200.0 mg/kg/injection, schedule: Q01DX001 (ip), vehicle: other); 87 % of control (dose: 400.0 mg/kg/injection, schedule: Q01DX001 (ip), vehicle: other).

With `O=S(=O)(O)c1ccc(-c2ccc(S(=O)(=O)O)cc2)cc1`, the T/C runs as follows: (dose: 88.8 mg/kg/injection, schedule: Q01DX Z (ip), vehicle: methylcellulose (MC)) 98 % of control; (dose: 133.0 mg/kg/injection, schedule: Q01DX Z (ip), vehicle: methylcellulose (MC)) 90 % of control; (dose: 200.0 mg/kg/injection, schedule: Q01DX Z (ip), vehicle: methylcellulose (MC)) 86 % of control.
